Data reported in PMC7906094 (Cancer chemotherapy and pharmacology, 2020).

How the values were obtained:
[1] = test system: CYP3A4; conditions: cited from earlier work
[2] = test system: CYP3A5; conditions: cited from earlier work
[3] = human, primary human hepatocytes
[4] = test system: monoamine oxidases (MAO)-A/B; assay: Triapine metabolism in human liver mitochondria; format: in vitro ADME; conditions: presence or absence of MAO-A and B inhibitors
[5] = test system: human liver microsomal glucuronyltransferases; assay: Triapine metabolism by glucuronosyltransferases in human liver microsomes; format: in vitro ADME; conditions: human liver microsomes + UDPGA, 120-minute incubation
[6] = cited from earlier work
[7] = test system: primary human hepatocytes; assay: Triapine metabolism in human hepatocytes with enzyme inhibitors; format: in vitro ADME; conditions: in the presence of non-isoform specific CYP inhibitor N-benzyl imidazole
[8] = target: CYP2C19 (Homo sapiens, UniProt P33261); format: in vitro ADME; conditions: triapine 6 μM, human liver microsomes
CYP2C19, sequence (P33261 whole entry): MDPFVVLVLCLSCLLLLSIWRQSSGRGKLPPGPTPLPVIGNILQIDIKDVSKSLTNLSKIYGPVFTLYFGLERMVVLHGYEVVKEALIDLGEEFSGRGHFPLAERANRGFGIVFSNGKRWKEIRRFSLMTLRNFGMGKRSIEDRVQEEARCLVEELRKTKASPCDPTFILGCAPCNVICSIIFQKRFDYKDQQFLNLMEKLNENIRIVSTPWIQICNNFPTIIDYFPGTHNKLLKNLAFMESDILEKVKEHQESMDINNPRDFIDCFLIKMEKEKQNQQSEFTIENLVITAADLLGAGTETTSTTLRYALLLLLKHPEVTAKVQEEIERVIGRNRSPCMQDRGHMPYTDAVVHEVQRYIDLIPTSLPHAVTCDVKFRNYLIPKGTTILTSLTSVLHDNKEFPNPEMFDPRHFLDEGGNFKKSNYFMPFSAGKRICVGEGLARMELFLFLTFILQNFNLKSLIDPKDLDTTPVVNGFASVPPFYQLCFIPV

[9] = test system: aldehyde oxidase (AO) and xanthine oxidase (XO); assay: Triapine metabolism in human liver cytosol with high AO/XO activity; format: in vitro ADME; conditions: 90-minute incubation, human liver cytosol enriched in AO/XO, presence or absence of raloxifene and allopurinol
[10] = test system: CYP; assay: Triapine metabolism in human liver microsomes, pH 7.4; format: in vitro ADME; conditions: human, human liver microsomes fortified with NADPH, pH 7.4
[11] = test system: human liver microsomes (CYP); assay: as above; format: in vitro ADME
[12] = test system: human liver microsomes (FMO); assay: Triapine metabolism in human liver microsomes, pH 8.4; format: in vitro ADME
[13] = test system: CYP2C9; conditions: microsomes; cited from earlier work
[14] = test system: CYP3A4; conditions: cited from earlier work; remark: listed apart in the source
[15] = test system: primary human hepatocytes; conditions: human hepatocytes, tenofovir 0.5 μM, emtricitabine 7.2 μM; for impact of co-incubation on triapine half-life: triapine 6 μM
[16] = test system: CYP3A4; conditions: cited from earlier work; remark: listed apart in the source

For `CNC(=O)c1cc(Oc2ccc(NC(=O)Nc3ccc(Cl)c(C(F)(F)F)c3)cc2)ccn1` [Sorafenib], the “effect on midazolam 1'-hydroxylation by CYP3A4” value [1] is listed as “inhibited” and the “effect on midazolam 1'-hydroxylation by CYP3A5” value [2] is listed as “activated”.
For `NC(=S)NN=Cc1ncccc1N` [Triapine, 3-aminopyridine-2-carboxaldehyde thiosemicarbazone], the half-life at 6 μM [3] was 8 h, the triapine depletion [4] was “no triapine depletion” and the triapine remaining [5] was 100.3%. For the same molecule, the Cmax ([6]; after intravenous or oral dosing) was roughly 5 µM, the total body clearance ([6]; humans, intravenous administration) was 57.5 ± 25 L/h and the “time to reach Cmax” value ([6]; humans, oral administration) was 1.9 ± 1.4 h. The urinary excretion ([6]; humans) was “minimal”, the “triapine metabolism in hepatocytes” value [7] was “inhibited” and the “increase of metabolism of CYP2C19 probe S-mephenytoin” value [8] was 20%. The metabolism of triapine [9] was “did not undergo metabolism”, the half-life at 6 μM [10] was roughly 3 h and the depletion of triapine ([11]; NADPH-fortified human liver microsomes pH 7.4 in the presence of CYP non-specific inhibitor N-benzyl imidazole (1 mM)) was “Minimal depletion”. It also gave a triapine remaining intact ([11]; control incubation without either NADPH or microsomes, after 2 h) greater than 95%, a triapine disappeared ([12]; human liver microsomes, phosphate buffer pH 8.4, fortified with NADPH, within 2 h) of 17% and a depletion of triapine ([12]; pH 8.4, control incubation without NADPH) of 9%. For the same molecule, the depletion of triapine ([12]; pH 8.4, in the presence of FMO inhibitor methimazole (200 μM)) was 9%.
In the case of `CC(C)=O` [acetone], the “stimulation of CYP2C9 mediated tolbutamide hydroxylation” value [13] is listed as 2–3 fold.
In the case of `CC#N` [acetonitrile], the “stimulation of CYP2C9 mediated tolbutamide hydroxylation” value [13] is given as 2–3 fold.
For `O=C(O)CC(O)(CC(=O)O)C(=O)O` [citrate], the “effect on CYP3A4 catalytic activity” value [14] is listed as “stimulated”.
With `Nc1nc(=O)n([C@@H]2CS[C@H](CO)O2)cc1F` [emtricitabine] the “impact of co-incubation on %triapine remaining after 48 hours” value [15] was “not significantly different”, the “impact of co-incubation on triapine AUC0–48h” value [15] was “not significantly different” and the “impact of co-incubation on triapine half-life” value [15] was “not impacted”.
For `C=C[C@H]1C[N@@]2CC[C@H]1C[C@@H]2[C@@H](O)c1ccnc2ccc(OC)cc12` [quinidine], the “increase of CYP3A4 Vmax for R-warfarin 10-hydroxylation” value [16] is given as 5 fold, the “increase of CYP3A4 Vmax for S-warfarin 4'-hydroxylation” value [16] is given as 2.5 fold and the “increase of CYP3A4 mediated 5-, 5'-, and 10-hydroxylation of diclofenac, piroxicam and R-warfarin” value [16] is given as 5–7 fold.
In the case of `CCN(CC)CCNC(=O)c1c(C)[nH]c(/C=C2\C(=O)Nc3ccc(F)cc32)c1C` [sunitinib], the “effect on midazolam 1'-hydroxylation by CYP3A4” value [1] is given as “inhibited” and the “effect on midazolam 1'-hydroxylation by CYP3A5” value [2] is given as “activated”.
For `C[C@H](Cn1cnc2c(N)ncnc21)OCP(=O)(O)O` [tenofovir], the “impact of co-incubation on %triapine remaining after 48 hours” value [15] was “not significantly different”, the “impact of co-incubation on triapine AUC0–48h” value [15] was “not significantly different” and the “impact of co-incubation on triapine half-life” value [15] was “not impacted”.
